Data as given in patent US20230028441A1, “NOVEL HETEROARYL-TRIAZOLE COMPOUNDS AS PESTICIDES” (Bayer Aktiengesellschaft, priority 2019, published 2023).

Tests used:
Type in all cases: in vivo
[1] = system: cattle tick larvae (Rhipicephalus microplus), strain Parkhurst, resistant against synthetic pyrethroids; assay: Rhipicephalus (Boophilus) microplus in-vitro contact test, larval cattle tick; details: 5 μg/cm^2 (=500 g/ha), after 48 hours, read-out: efficacy (larvae dead or moribund)
Description: (§1) 9 mg compound is solved in 1 mL acetone and diluted with acetone to the desired concentration. 250 μL of the test solution is filled in 25 mL glass test tubes and homogeneously distributed on the inner walls by rotation and tilting on a shaking device (2 h at 30 rpm). With a compound concentration of 900 ppm, an inner surface of 44.7 cm^2 and a homogeneous distribution, a dose of 5 μg/cm^2 is achieved.
After the solvent has evaporated, each test tube is filled with 20-50 cattle tick larvae (Rhipicephalus microplus), closed with a perforated lid and incubated in a horizontal position at 85% relative humidity and 27° C. in an incubator. After 48 hours efficacy is determined. The larvae are patted on the ground of the tubes and negative geotactic behaviour is recorded.
An efficacy of 100% means all larvae are dead or moribund; 0% means no larvae are dead or moribund.

[2] = system: fall armyworm larvae (Spodoptera frugiperda); assay: Spodoptera frugiperda spray test (maize leaf sections); details: 168 h
In short: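 Maize leaf sections were sprayed with compound formulated in acetone/DMF and diluted in water containing 1000 ppm emulsifier. Once dry, sections were infested with fall armyworm larvae. Mortality (%) was scored after 7 days.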

[3] = system: adult unfed cat fleas (Ctenocephalides felis); assay: Ctenocephalides felis oral test; details: 48 h, 100 ppm in cattle blood, after 2 days
Description: Solvent: dimethyl sulfoxide
To produce a suitable preparation of active compound, 10 mg of active compound are dissolved in 0.5 mL solvent, and the concentrate is diluted with cattle blood to the desired concentration.
Approximately 20 adult unfed cat fleas (Ctenocephalides felis) are placed in flea chambers. The blood chamber, sealed with parafilm on the bottom, are filled with cattle blood supplied with compound solution and placed on the gauze covered top of the flea chamber, so that the fleas are able to suck the blood. The blood chamber is heated to 37° C. whereas the flea chamber is kept at room temperature.
After 2 days mortality in % is determined. 100% means all the fleas have been killed; 0% means none of the fleas have been killed.

[4] = system: green peach aphid (Myzus persicae); assay: Myzus persicae oral test; details: 120 h
Description: Solvent: 100 parts by weight acetone
To produce a suitable preparation of active compound, 1 part by weight of active compound is mixed with the stated amount of solvent, and the concentrate is diluted with water to the desired concentration.
50 μL compound solution is filled in microtiter plates and 150 μL IPL41 insect medium (33%+15% sugar) is added to obtain a total volume of 200 μL per well. Afterwards the plates are sealed with parafilm through which a mixed population of the green peach aphid (Myzus persicae) can suck on the compound preparation.
After 5 days mortality in % is determined. 100% means all aphids have been killed and 0% means none of the aphids have been killed.

[5] = system: adult engorged female ticks (Rhipicephalus microplus); assay: Rhipicephalus (Boophilus) microplus injection test; details: 168 h, egg deposition after 7 days, read-out: efficacy (infertile eggs); for pest or weed control at 0.004 mg: 4 μg/animal; for pest or weed control at 0.02 mg: 20 μg/animal
In short: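 Compound was dissolved in DMSO at 10 mg per 0.5 mL and diluted with DMSO to the test concentration. Five engorged adult females received a 1 μL abdominal injection and were kept in a climate chamber. After 7 days, fertile egg deposition was scored, with unclear eggs held until hatching at about 42 days; 100% efficacy means all eggs were infertile.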

[6] = system: larvae of the southern green stink bug (Nezara viridula); assay: Nezara viridula spray test; details: in Hordeum vulgare, 96 h
Description: (§2) Solvent: 78.0 parts by weight of acetone • • 1.5 parts by weight of dimethylformamide
(§3) Emulsifier: alkylarylpolyglycol ether
(§4) To produce a suitable preparation of active compound, 1 part by weight of active compound is mixed with the stated amount of solvent, and the concentrate is diluted with water, containing an emulsifier concentration of 1000 ppm, to the desired concentration. Further test concentrations are prepared by dilution with emulsifier containing water.
Barley plants (Hordeum vulgare) infested with larvae of the southern green stink bug (Nezara viridula) are sprayed with a test solution containing the desired concentration of the active ingredient.
After 4 days mortality in % is determined. 100% means all the stink bugs have been killed; 0% means none of the stink bugs have been killed.

[7] = system: larvae of the banded cucumber beetle (Diabrotica balteata); assay: Diabrotica balteata spray test; details: 168 h, 100 g/ha (=32 μg/well), after 7 days, wheat seeds, read-out: efficacy (seedlings grown up)
In short: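 Germinated wheat seedlings (5 per well, agar plates) sprayed with compound in acetone/DMF diluted in water with 1000 ppm emulsifier, then infested with 10-20 larvae per unit. Efficacy scored after 7 days as % seedling growth relative to untreated, uninfested control (100% = normal growth, 0% = none).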

[8] = system: brown planthopper (Nilaparvata lugens); assay: Nilaparvata lugens spray test; details: in Oryza sativa, 96 h
Description: as §2, §3
as §4, with “solvents” for “solvent,”, “and” for “and the concentrate”
Rice plants (Oryza sativa) are sprayed with a preparation of the active ingredient of the desired concentration and the plants are infested with the brown planthopper (Nilaparvata lugens).
After 4 days mortality in % is determined. 100% means all planthoppers have been killed and 0% means none of the planthoppers have been killed.

[9] = system: adult brown dog ticks (Rhipicephalus sanguineus); assay: Rhipicephalus sanguineus in-vitro contact test with adult brown dog ticks; details: after 48 hours, read-out: efficacy (ticks dead or moribund)
Description: as §1
After the solvent has evaporated, each test tube is filled with 5-10 adult brown dog ticks (Rhipicephalus sanguineus), closed with a perforated lid and incubated in a lying position at room temperature and relative humidity. After 48 hours efficacy is determined. The ticks are patted on the ground of the tubes and are incubated on a heating plate at 45-50° C. for at most 5 minutes. Immotile or uncoordinated moving ticks, which are not able to escape the heat by climbing upwards, are marked as dead or moribund.
An efficacy of 100% means all ticks are dead or moribund; 0% means no ticks are dead or moribund.

Row | SMILES | mortality at 100 g/ha [2] | mortality at 100 ppm [3] | mortality at 4 ppm [4] | pest or weed control at 0.004 mg [5] | mortality at 500 g/ha [6] | pest or weed control at 32 µg/disc, 100 g/ha [7] | mortality at 500 g/ha [8] | further results
1 | CNC(=O)c1nc(C(C)NC(=O)c2cc(Cl)cc(C(F)(F)F)c2)n(-c2ccc(C#N)cn2)n1 (centres unmarked) [I-079] | 100% | 100% | 100% | 100% | – | – | – | pest or weed control at 5 µg/cm2 [1]: 100%; pest or weed control at 0.02 mg [5]: 100%
2 | CCS(=O)(=O)c1cc(OC(F)(F)F)cc(C(=O)N[C@@H](C)c2nc(NC)nn2-c2ncccn2)c1 [I-180] | 100% | – | – | – | 100% | 100% | 100% | –
3 | CNc1nc([C@H](C)NC(=O)c2cc(OC(F)(F)F)cc(S(C)(=O)=O)c2)n(-c2ncccn2)n1 [I-185] | – | – | – | – | 100% | 100% | 100% | –
4 | CON(C)c1nc([C@H](C)NC(=O)c2cc(Br)cc(OC(F)(F)F)c2)n(-c2ncccn2)n1 [I-151] | 100% | – | – | – | 100% | 100% | 100% | –
5 | CON(C)c1nc([C@H](C)NC(=O)c2cc(C(F)(F)F)cc(C(F)(F)F)c2)n(-c2ncccn2)n1 [I-149, N-[(1S)-1-[5-[methoxy(methyl)amino]-2-pyrimidin-2-yl-1,2,4-triazol-3-yl]ethyl]-3,5-bis(trifluoromethyl)benzamide] | 100% | – | – | – | 100% | 100% | 100% | –
6 | C[C@H](NC(=O)c1cc(OC(F)(F)F)cc(C2CC2)c1)c1nc(N2CCOCC2)nn1-c1ccc(C#N)cn1 [I-174] | – | – | – | – | – | 100% | 100% | –
7 | C[C@H](NC(=O)c1cc(C(F)(F)F)cc(C(F)(F)F)c1)c1nc(N2CCOCC2)nn1-c1ccc(C#N)cn1 [I-175] | 100% | – | – | – | – | 100% | 100% | –
8 | CC(NC(=O)c1cc(Cl)cc(C(F)(F)F)c1)c1nc(C#N)nn1-c1ncccn1 (single isomer, unassigned) [I-080, 3-chloro-N-[1-(5-cyano-2-pyrimidin-2-yl-1,2,4-triazol-3-yl)ethyl]-5-(trifluoromethyl)benzamide] | – | 100% | 90% | 100% | – | 100% | – | –
9 | C[C@H](NC(=O)c1cc(C(F)(F)F)cc(C(F)(F)F)c1)c1nc(N)nn1-c1ccc(C#N)cn1 [I-173] | 100% | – | – | – | 90% | 100% | 100% | –
10 | CC(NC(=O)c1cc(Cl)cc(S(C)(=O)=O)c1)c1nc(N2CCOCC2)nn1-c1ccc(C#N)cn1 (centres unmarked) [I-160] | – | – | – | – | – | – | 100% | –
11 | CNc1nc([C@H](C)NC(=O)c2cc(OC(F)(F)F)cc(S(=O)(=O)C(C)C)c2)n(-c2ncccn2)n1 [I-181] | – | – | – | – | – | – | 100% | –
12 | CCS(=O)(=O)c1cc(C(=O)N[C@@H](C)c2nc(N)nn2-c2ncccn2)cc(C(F)(F)F)c1 [I-189] | – | – | – | – | 100% | – | 100% | –
13 | C[C@H](NC(=O)c1cc(C(F)(F)F)cc(S(C)(=O)=O)c1)c1nc(N)nn1-c1ncccn1 [I-211] | – | – | – | – | 100% | – | 100% | –
14 | C[C@H](NC(=O)c1cc(OC(F)(F)F)cc(S(C)(=O)=O)c1)c1nc(N)nn1-c1ncccn1 [I-188] | – | – | – | – | 100% | – | 100% | –
15 | CC(NC(=O)c1cc(Br)cc(C(F)(F)F)c1)c1nc(N)nn1-c1ncccn1 (centres unmarked) [I-093] | 83% | 90% | 100% | 100% | – | – | – | pest or weed control at 5 µg/cm2 [1]: 100%; pest or weed control at 1 µg/cm2, 100 g/ha ([9]; 1 μg/cm^2 (=100 g/ha)): 80%
16 | CC(=O)Nc1nc(C(C)NC(=O)c2cc(Cl)cc(S(C)(=O)=O)c2)n(-c2ccc(Cl)cn2)n1 (centres unmarked) [I-017] | – | 100% | 100% | 100% | 100% | – | – | mortality at 100 g/ha [6]: 90%; mortality at 500 g/ha [2]: 100%; pest or weed control at 0.02 mg [5]: 100%
17 | CC(NC(=O)c1cc(Cl)cc(S(C)(=O)=O)c1)c1nc(-c2cnccn2)nn1-c1ncccn1 (centres unmarked) [I-045] | – | 100% | 90% | 100% | – | – | – | pest or weed control at 5 µg/cm2, 500 g/ha ([9]; 5 μg/cm^2 (=500 g/ha)): 80%; pest or weed control at 0.02 mg [5]: 100%
18 | CC(NC(=O)c1cc(Cl)cc(S(C)(=O)=O)c1)c1nc(CS(C)(=O)=O)nn1-c1ccc(Cl)cn1 (centres unmarked) [I-027, 3-chloro-N-[1-[2-(5-chloro-2-pyridyl)-5-(methylsulfonylmethyl)-1,2,4-triazol-3-yl]ethyl]-5-methylsulfonyl-benzamide] | – | 100% | 100% | 80% | 100% | – | – | pest or weed control at 5 µg/cm2 [1]: 90%; mortality at 100 g/ha [6]: 100%; pest or weed control at 0.02 mg [5]: 100%
19 | CC(NC(=O)c1cc(Cl)cc(C(F)(F)F)c1)c1nc(C(N)=O)nn1-c1ncccn1 (single isomer, unassigned) [I-074, 5-[1-[[3-chloro-5-(trifluoromethyl)benzoyl]amino]ethyl]-1-pyrimidin-2-yl-1,2,4-triazole-3-carboxamide] | – | 100% | 100% | 100% | – | – | – | mortality at 100 g/ha [6]: 100%
20 | CC(Cl)C(=O)Nc1nc(C(C)NC(=O)c2cc(Cl)cc(S(C)(=O)=O)c2)n(-c2ncccn2)n1 (centres unmarked) [I-019] | – | 100% | 90% | 100% | – | – | – | mortality at 100 g/ha [6]: 90%
21 | CC(NC(=O)c1cc(Cl)cc(S(C)(=O)=O)c1)c1nc(NC(=O)C2(Cl)CC2)nn1-c1ncccn1 (centres unmarked) [I-020] | – | 100% | 90% | 100% | – | – | – | –
22 | CNc1nc([C@H](C)NC(=O)c2cc(OC(F)(F)F)cc(S(=O)(=O)c3ccc(Cl)cc3)c2)n(-c2ncccn2)n1 [I-182] | 100% | – | – | – | – | 100% | 100% | –
23 | C[C@H](NC(=O)c1cc(Cl)cc(S(C)(=O)=O)c1)c1nc(N)nn1-c1ncccn1 [I-169] | – | – | – | – | 100% | – | 100% | –
